These results are taken from ChEMBL document CHEMBL4837244 (ACS Med Chem Lett, 2021).

Common to all, as to type: ADME, Microsome
A short description of data set [1]: Metabolic stability in rat liver microsomes assessed as parent compound remaining at 0.1 uM in presence of NADPH by LC-MS/MS analysis. The settings on record: read-out: Stabilty.
Data set [2] in a line: Metabolic stability in mouse liver microsomes assessed as parent compound remaining at 0.1 uM in presence of NADPH by LC-MS/MS analysis. The settings on record: read-out: Stabilty. (Microsomes from liver hold many membrane-bound enzymes, among them those of drug oxidation.)
Data set [3] is described as follows: Metabolic stability in human liver microsomes assessed as parent compound remaining at 0.1 uM in presence of NADPH by LC-MS/MS analysis.

Bounds are passed on as bounds.

For the compound `CCOC(=O)c1ccc(CCN2CCC(Nc3nc4ccccc4n3Cc3ccc(C#N)cc3)CC2)cc1`, the remaining at 0.1 µM in data set [1] and in data set [2] was under 45% in each case. Also, the Stabilty entry in data set [3] was “Unstable”.
For the compound `N#Cc1ccc(CCN2CCC(Nc3nc4ccccc4n3Cc3ccc(C#N)c(F)c3)CC2)cc1`, the remaining at 0.1 µM in data set [1] and in data set [2] was under 45% throughout. In addition, the Stabilty result in data set [3] is “Unstable”.
In the case of `O=C(c1ccc(CCN2CCC(Nc3nc4ccccc4n3Cc3ccc(F)cc3)CC2)cc1)N1CCNCC1`, the remaining at 0.1 µM in data set [1] and in data set [2] was under 45% each time. Moreover, the Stabilty entry in data set [3] is recorded as “Unstable”.
For the compound `N#Cc1ccc(CCN2CCC(Nc3nc4ccccc4n3Cc3ccc(C(F)(F)F)nc3)CC2)cc1`, the remaining at 0.1 µM in data set [1] and in data set [2] was under 45% in each case. In addition, in data set [3], the Stabilty entry is “Unstable”.
As to `N#Cc1ccc(Cn2c(NC3CCN(CCc4ccc(C(F)(F)F)cc4)CC3)nc3ccccc32)cc1`, the remaining at 0.1 µM in data set [1] and in data set [2] was under 45% in each case. In data set [3], the Stabilty result is “Unstable”.
